Read-outs that look alike come from different tables or passages of the source.
Tests used:
[1] = Effect of speciation and ITP on gallium deposition within full thickness human skin; type: in vitro ADME
Description: An infinite dose skin deposition study was performed using full thickness human skin. Small Franz cells were constructed as previously described and the mass of skin section recorded. The Franz cells were set up with a receiver fluid of 0.05 M citric acid buffer (pH 5.0) and allowed to equilibrate for one hour. Donor solutions were prepared and 0.5 mL of each added to the appropriate Franz cell donor compartment. Each cell was subjected to either 60 min of ITP or an equivalent period of passive permeation. The cells were sacrificed after cither 60 min (directly after ITP, n=8) or after 25 h (24 h of permeation, n=8). […] The skin samples were removed and reweighed. […] The skin samples were then finely sliced using scissors, chilled and homogenised for five minutes using a T10 Ultra-Turax homogeniser (IKA werks, Staufen, Germany) using 30 second pulses. The scalpel blade, scissors, forceps and homogeniser blades were washed into the homogenate using PDCA mobile phase (five times concentrate) to minimise drug loss from the method. The skin-PDCA concentrate homogenate was allowed to mix for a further 24 h before being filtered using 0.45 μm, 30 mm cellulose acetate syringe filters (Orange Scientific, Braine l'Alleud, Belgium).

[2] = for specific binding affinity of human full thickness skin for gallium (mean): mean of samples A-E, nitrate hydrate
Description: Ten minutes of 400 μA iontophoresis was applied to all of the cells and 0.5 mL samples were removed after 0, 24, 28, 42, 65 and 70 h and replaced with receiver fluid. […] Samples of 0.5 mL were removed for LC ion-exchange assay after 0, 24, 28, 42, 52 and 70 h and replaced with receiver fluid. […] The skin samples were then finely sliced using scissors, chilled and homogenised for five minutes using a T10 Ultra-Turax homogeniser (IKA works, Staufen, Germany) using 30 second pulses. The scalpel, scissors, forceps and homogeniser blades were washed through using 10 mL of PDCA mobile phase concentrate as the extractant. […] The skin-PDCA concentrate homogenate was allowed to mix for a further 24 h before being filtered using 0.45 μm, 30 mm cellulose acetate syringe filters (Orange Scientific, Braine l'Alleud, Belgium).

[3] = Sample D, Ga delivered 0.395 mg
[4] = Sample E, Ga delivered 0.1975 mg

O=[N+]([O-])[O-].O=[N+]([O-])[O-].O=[N+]([O-])[O-].[Ga+3] [gallium nitrate, Gallium (III) nitrate hydrate]
ITP Ga skin deposition 24 h ([1]; Anodal, 60 min ITP then 24 h): 1.888±1.159 mg/cm^2 | ITP Ga skin deposition 60 min ([1]; Anodal, 60 min of 615 μA/cm^2 ITP): 1.203±0.248 mg/cm^2 | 60 min passive skin deposition ([1]; passive, 60 min): 0.288±0.258 mg/cm^2 | % Ga recovery ([2]; Sample A, Ga delivered 2.4 mg): 97.1% | Binding ([2]; Sample A, Ga delivered 2.4 mg): 0.138 mg/g | Ga bound to skin ([2]; Sample A, Ga delivered 2.4 mg): 0.07 mg | Ga recovered ([2]; Sample A, Ga delivered 2.4 mg): 2.33 mg | % Ga recovery ([2]; Sample B, Ga delivered 1.6 mg): 92.5% | Binding ([2]; Sample B, Ga delivered 1.6 mg): 0.178 mg/g | Ga bound to skin ([2]; Sample B, Ga delivered 1.6 mg): 0.12 mg | Ga recovered ([2]; Sample B, Ga delivered 1.6 mg): 1.48 mg | % Ga recovery ([2]; Sample C, Ga delivered 0.79 mg): 87.3% | Binding ([2]; Sample C, Ga delivered 0.79 mg): 0.193 mg/g | Ga bound to skin ([2]; Sample C, Ga delivered 0.79 mg): 0.1 mg | Ga recovered ([2]; Sample C, Ga delivered 0.79 mg): 0.69 mg | % Ga recovery [2, 3]: 73.4% | Binding [2, 3]: 0.197 mg/g | Ga bound to skin [2, 3]: 0.105 mg | Ga recovered [2, 3]: 0.29 mg | % Ga recovery [2, 4]: 60.8% | Binding [2, 4]: 0.151 mg/g | Ga bound to skin [2, 4]: 0.0775 mg | Ga recovered [2, 4]: 0.12 mg | specific binding affinity of human full thickness skin for gallium (mean) ([2]; listed as Ga): 0.171 mg/g | specific binding affinity of human full thickness skin for gallium (mean) [2]: 0.17 ± 0.03 mg/g

From US20130072899A1, “Pharmaceutical Formulations for Iontophoretic Delivery of Gallium” (Nitric BloTherapeutics, Inc., priority 2008, published 2013)
